Data: patent publication US20060106102A1, “Napththalene derivatives which inhibit the cytokine or biological activity of microphage migration inhibitory factor (mif)” (priority 2002, published 2006)
pEC50: −log10 of the molar value. Counter-ions that a name gives are not always drawn. Like-named read-outs stand apart in the source and are kept apart here.

Columns and labels:
[1] = test system: antigen-specific T cell activation (splenic T lymphocytes from mBSA-immunised mice); assay: antigen-specific (mBSA) activation of splenic T lymphocytes in vitro, 3H-thymidine incorporation; format: cell-based, C57BL6/J mice
Experimental: After a further seven (7) days mice were killed and spleens collected aseptically into Hanks buffered saline solution (HBSS). A single cell suspension was prepared in Petri dishes by flushing DMEM through the organ using a 26G needle and 2 mL syringe. The resulting cell suspension was centrifuged for 5-7 minutes and supernatant discarded. Erythrocytes were lysed using a solution containing 0.579% NH4Cl, 0.000037% EDTA, and 0.1% NaHCO3 in a 37° C. water bath. Tubes were then filled with DMEM and centrifuged for 5-7 minutes. […] The specific stimulating antigen, mBSA, was then added at 10-50 μg/mL and plates incubated for 30 hours in a 37° C., 5% CO2 incubator. Tritiated^3H-thymidine was then added at a concentration of 0.5 μCi/well for a further 18 hours. Cells were harvested on a Packard cell harvester, and the harvested material added to 750 μL/tube scintillation fluid. Scintillation counts were read on a Wallac beta-emnission counter. […] Further compounds were also tested for their ability to inhibit antigen-specific T cell activation as a marker of the inhibition of the cytokine or biological activity of MIF using this assay.

[2] = test system: IL-1-induced COX-2 expression; assay: IL-1-induced COX-2 expression in S112 human dermal fibroblasts (MIF-dependent event), flow cytometry; format: cell-based; settings: for inhibition at 1 µM: compound 1 uM
Experimental: The activity of each compound was studied in a bioassay utilising MIF-dependent activation of human dermal fibroblasts. […] IL-1-induced COX-2 expression is therefore a MIF-dependent event. […] Prior to experimentation, cells were seeded at 10^5 cells/ml in RPMI/0.1% BSA for 18 hours. […] Cells permeabilised with 0.1% saponin were sequentially labelled with a mouse anti-human COX-2 monoclonal antibody and with sheep-anti-mouse F(ab)2 fragment labelled with fluoroscein isothiocyanate. Cellular fluorescence was determined using a flow cytometer. At least 5000 events were counted for each reading, each of which was performed in duplicate, and the results expressed in mean fluorescence intensity (MFI) after subtraction of negative control-labelled cell fluorescence. The effect of each compound was determined by subtracting the IL-1+compound-treated cell MFI from the IL-1-treated cell MFI and expressed as % inhibition. In each case the % inhibition of IL-1-induced COX2 expression is shown as the mean, or mean±SEM where results are available from multiple experiments.

[3] = Mus musculus, T-cell, mBSA 10 μg/ml, read-out: EC50 (T cell activation suppressed by 50% compared to vehicle-only-treated cells)
[4] = Mus musculus, T-cell, mBSA 50 μg/ml, read-out: EC50 (T cell activation suppressed by 50% compared to vehicle-only-treated cells)
[5] = Homo sapiens, Fibroblast, compound 50 uM, IL-1 0.1 ng/ml, 6 hours, S112 cells, read-out: % inhibition of IL-1-induced COX2 expression (Effect)
[6] = Homo sapiens, Fibroblast, IL-1 0.1 ng/ml, 6 hours, S112 cells, read-out: % inhibition of IL-1-induced COX2 expression (Effect)

In the case of `COC(=O)c1cc2cc(OC)ccc2cc1O` [Compound 35, methyl 2-hydroxy-6-methoxy-3-naphthoate], the pEC50 [1, 3] was 5.05 and the pEC50 [1, 4] was 6.66.

With `COC(=O)c1ccc2cc(OC)cc(C)c2c1` [Compound 65, Methyl 6-methoxy-8-methyl-2-napthoate ester] the inhibition at 50 µM [2, 5] was 50.4% and the pEC50 [1, 4] was 4.75.

`C[C@@H]1C[C@H]2[C@@H]3CCC4=CC(=O)C=C[C@]4(C)[C@@]3(F)[C@@H](O)C[C@]2(C)[C@@]1(O)C(=O)CO` [dexamethasone, reference compound] was tested, and the “% inhibition (IL-1 induced COX-2 expression)” value ([2]; Table 2 experiment 2: dexamethasone alone, 10^−9 M) was 63.8%.

For `CCOC(=O)c1ccc2cc(SC(=O)N(C)C)ccc2c1OC` [Compound 33, Ethyl-6-[(dimethylamino)carbonyl]sulfanyl-1-methoxy-2-naphthoate], the inhibition at 50 µM [2, 5] was 5.3%, the pEC50 [1, 3] was 4.90 and the pEC50 [1, 4] was 6.27.

`COc1ccc2cc(C(CCCCCO)C(=O)O)ccc2c1` (centres unmarked) [Compound 58, 7-hydroxy-2-(6-methoxy-2-naphthyl)heptanoic acid] showed a pEC50 [1, 4] of 4.65.

Work on `COC(=O)c1ccc2ccc(O)c([N+](=O)[O-])c2c1` [Compound 46, Methyl 7-hydroxy-8-nitro-2-naphthoate ester] yielded an inhibition at 50 µM [2, 5] of 9.3% and a pEC50 [1, 4] of 4.55.

`CCOC(=O)c1ccc2cc(O)ccc2c1O` [Compound 28, Ethyl 1,6-dihydroxy-2-naphthaote] was tested, and the inhibition at 25 µM ([2]; Homo sapiens, Fibroblast, compound 25 uM, IL-1 0.1 ng/ml, 6 hours, S112 cells, read-out: % inhibition of IL-1-induced COX2 expression (Effect)) was 7.8%, the pEC50 [1, 3] was 5.19 and the pEC50 [1, 4] was 5.93.

With `COC(=O)c1ccc2c(N)c(OC)ccc2c1` [Compound 49, Methyl 5-amino-6-methoxy-2-naphthoate ester] the pEC50 [1, 3] was 6.00 and the pEC50 [1, 4] was 4.92.

In the case of `CCCCCNCc1cc2ccc(O)cc2cc1C(=O)O` [Compound 43, 6-hydroxy-[2-(1-pentylamino)methyl]-3-naphthoic acid], the “% inhibition of IL-1-induced COX2 expression (Effect)” value ([2]; compound 50 uM, IL-1 0.1 ng/ml, 6 hours, S112 cells) was 24.10%, the pEC50 ([1]; mBSA 10 μg/ml, read-out: EC50 (T cell activation suppressed by 50% compared to vehicle-only-treated cells)) was 5.73 and the pEC50 ([1]; mBSA 50 μg/ml, read-out: EC50 (T cell activation suppressed by 50% compared to vehicle-only-treated cells)) was 4.38.

`COC(=O)c1ccc2cc(O)ccc2c1` [Compound 15, Methlyl-6-hydroxy-2-naphthoate] showed an inhibition at 1 µM [2, 6] of 17.3%, a pEC50 [1, 3] of 4.29 and a pEC50 [1, 4] of 4.67.

`COc1ccc2cc(C)c(C(=O)O)cc2c1` [Compound 39, 7-methoxy-3-methyl-2-naphthoic acid: 2-amino-2-methylpropan-1-ol salt] was tested, and the inhibition at 50 µM [2, 5] was 13.3%, the pEC50 [1, 3] was 4.31 and the pEC50 [1, 4] was 4.05.

`O=C(O)c1ccc2cc(O)ccc2c1` [Compound 9, 6-hydroxy-2-naphthanoic acid] showed an inhibition at 1 µM [2, 6] of 7.5%, a pEC50 [1, 3] of 4.14 and a pEC50 [1, 4] of 4.06.

For `COC(=O)c1ccc2c([N+](=O)[O-])c(O)ccc2c1` [Compound 47, Methyl 6-hydroxy-5-nitro-2-naphthoate ester], the pEC50 [1, 3] was 4.88 and the pEC50 [1, 4] was under 4.00.

Work on `COC(=O)c1ccc2ccc(OC)cc2c1` [Compound 44, Methyl 7-methoxy-2-naphthoate ester] yielded an inhibition at 50 µM [2, 5] of 9.8%, a pEC50 [1, 3] of 4.90 and a pEC50 [1, 4] of under 4.00.

`COC(=O)c1ccc2ccc(O)cc2c1` [Compound 45, Methyl 7-hydroxy-2-naphanoate ester] showed a pEC50 [1, 3] of 4.83 and a pEC50 [1, 4] of 4.49.

`COc1ccc2cc(C)c(C(=O)O)cc2c1Br` [Compound 40, 5-bromo-6-methoxy-2-methyl-3-naphthaoic acid] gave an inhibition at 50 µM [2, 5] of 8.5%, a pEC50 [1, 3] of 5.59 and a pEC50 [1, 4] of 5.05.

Molecule `O=C(O)CCCCCOC(=O)c1ccc2cc(O)ccc2c1` [Compound 22] has an inhibition at 50 µM [2, 5] of 11.6%, a pEC50 [1, 3] of 5.46 and a pEC50 [1, 4] of under 4.00.

Molecule `CCCCCCCCCCCCCCCCCCCCOC(=O)c1ccc2cc(O)ccc2c1` [Compound 19] has an inhibition at 10 µM ([2]; Homo sapiens, Fibroblast, compound 10 uM, IL-1 0.1 ng/ml, 6 hours, S112 cells, read-out: % inhibition of IL-1-induced COX2 expression (Effect)) of 7.7%, a pEC50 [1, 3] of 4.96 and a pEC50 [1, 4] of 6.02.

For `CNc1ccc2cc(S(=O)(=O)O)ccc2c1` [Compound 11, 6-methylamino-2-naphthalene sulphonic acid, sodium salt], the inhibition at 25 µM ([2]; Homo sapiens, Fibroblast, 6 h, read-out: % inhibition of IL-1-induced COX2 expression (Effect)) was 13.6%, the pEC50 ([1]; Mus musculus, T-cell, read-out: EC50 (T cell activation suppressed by 50% compared to vehicle-only-treated cells), mBSA 10 μg/ml) was 7.70 and the pEC50 ([1]; Mus musculus, T-cell, read-out: EC50 (T cell activation suppressed by 50% compared to vehicle-only-treated cells), mBSA 50 μg/ml) was 5.48.

`O=C(O)c1ccc2cc3c(cc2c1)OCCO3` [Compound 14, 2,3-dihydronaphtho[2,3-b][1,4]dioxine-7-carboxylic acid] showed an inhibition at 50 µM [2, 5] of 24.1%, a pEC50 [1, 3] of 4.99 and a pEC50 [1, 4] of 6.92.
